Assay results published in patent US10792282B2, “Protein kinase C inhibitors and uses thereof” (Rigel Pharmaceuticals, Inc., priority 2013, dated 2020).
Like-named read-outs stand apart in the source and are kept apart here.

Key:
[1] = test system: PKC mediated IL-2 production; assay: IL-2 ELISA, human primary T cell, anti CD3+CD28+ (whole cell functional assay); type: cell-based
In short: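 Anti-CD3/CD28-expanded human primary T cells (100,000/well), pre-incubated 1 h at 37° C with compound, then stimulated on plates coated with 1 μg/ml αCD3 and 5 μg/ml αCD28. Counter assay used 0.5 ng/ml PMA plus 0.1 μM ionomycin (final). Supernatant IL-2 measured by ELISA after 24 h.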

[2] = test system: PLP induced experimental autoimmune encephalomyelitis (EAE); assay: PLP induced experimental autoimmune encephalomyelitis (EAE) model in SJL mice; type: in vivo; details: Mus musculus, both pretreatment and treatment dosing
Description: EAE is a useful model for multiple sclerosis (MS), an autoimmune disease of the CNS that is caused by immune-cell infiltration of the CNS white matter. Inflammation and subsequent destruction of myelin cause progressive paralysis. Like the human disease, EAE is associated with peripheral activation of T cells autoreactive with myelin proteins, such as myelin basic protein (MBP), proteolipid protein (PLP), or myelin oligodendrocyte protein (MOG). Activated neuroantigen-specific T cells pass the blood-brain barrier, leading to focal mononuclear cell infiltration and demyelination. EAE can be induced in susceptible mouse strains by immunization with myelin-specific proteins in combination with adjuvant. In the SJL mouse model used in these studies, hind limb and tail paralysis is apparent by Day 10 after immunization, the peak of disease severity can be observed between Days 10 and 14, and a cycle of partial spontaneous remission followed by relapse can be observed up to Day 35.
In the SJL murine model of EAE, each mouse is sensitized with PLP/CFA. (150 μg PLP139-151 with 200 μg CFA in 0.05 ml of homogenate on four sites of hind flank for a total of 0.2 ml emulsion is used to induce EAE). […] In both protocols, clinical scores are monitored daily, and body weights are measured twice weekly. […]

[3] = Homo sapiens, T-cell, 24 h, IL-2 production, human primary T cells stimulated with αCD3 and αCD28, 24 hours, IL-2 by ELISA, read-out: EC50
[4] = Homo sapiens, T-cell, human primary T cells stimulated with αCD3 and αCD28, IL-2 by ELISA, read-out: EC50 (blocked IL-2 production)
[5] = IL-2 production, human primary T cells stimulated with αCD3 and αCD28, 24 hours, IL-2 by ELISA, read-out: EC50

Structure (SMILES) | EC50 [1, 3] | EC50 [1, 4] | EC50 [1, 5] | other results
CC(=O)N(C)c1cc(Nc2ncc(F)c(NC3CC(C)(C)N4CCCC4C3C)n2)c(F)cc1C1CC1 (stereo not drawn) [Compound 73] |  |  | < 0.5 µM | 
Cn1nnn(-c2cc(Nc3ncc(F)c(N[C@@H]4C[C@@H]5CC(F)(F)CN5C(C)(C)C4)n3)c(F)cc2C2CC2)c1=O [Compound 45, 1-(5-(4-((7R,8aR)-2,2-difluoro-octahydro-5,5-dimethylindolizin-7-ylamino)-5-fluoropyrimidin-2-ylamino)-2-cyclopropyl-4-fluorophenyl)-4-methyl-1H-tetrazol-5(4H)-one] | < 10 µM | < 10 µM |  | 
CC1(C)CC(Nc2nc(Nc3ccc(O[C@H]4CCOC4)c(C#N)c3)ncc2F)CC2CCCN21 (stereo partly drawn) [Compound 60, 2-((S)-tetrahydrofuran-3-yloxy)-5-(5-fluoro-4-(octahydro-5,5-dimethylindolizin-7-ylamino)pyrimidin-2-ylamino)benzonitrile] | < 0.5 µM | < 10 µM |  | 
CC(C)N1CCC(Oc2ccc(Nc3ncc(F)c(NC4CC5CCCN5C(C)(C)C4)n3)cc2OC(F)F)CC1 (stereo not drawn) [Compound 9, (R/S, S/R, R/R, S/S)—N^2-(4-(1-isopropylpiperidin-4-yloxy)-3-(difluoromethoxy)phenyl)-5-fluoro-N^4-(octahydro-5,5-dimethylindolizin-7-yl)pyrimidine-2,4-diamine] |  |  | < 0.5 µM | 
CC1(C)Oc2ccc(Nc3ncc(F)c(NC4CC5CCCN5C(C)(C)C4)n3)cc2-n2nnnc21 (stereo not drawn) [Compound 1, N2-(4,4-dimethyl-4H-benzo[b]tetrazolo[1,5-d][1,4]oxazin-8-yl)-5-fluoro-N4-(octahydro-5,5-dimethylindolizin-7-amine)pyrimidine-2,4-diamine] |  |  | < 0.5 µM | 
Cn1nnn(-c2cc(Nc3ncc(F)c(NC4CCN5C(CCC5(C)C)C4)n3)c(F)cc2C2CC2)c1=O (single isomer, unassigned) [Compound 34, 1-(5-(5-fluoro-4-(octahydro-3,3-dimethylindolizin-7-ylamino)pyrimidin-2-ylamino)-2-cyclopropyl-4-fluorophenyl)-4-methyl-1H-tetrazol-5(4H)-one] | < 10 µM | < 10 µM |  | 
CC1(C)CC(Nc2nc(Nc3cc(-n4cnnn4)c(C4CC4)cc3F)ncc2F)CC2CCCN21 (racemic) [Compound 54, (±)-N2-(4-cyclopropyl-2-fluoro-5-(1H-tetrazol-1-yl)phenyl)-5-fluoro-n^4-(octahydro-5,5-dimethylindolizin-7-yl)pyrimidine-2,4-diamine] |  |  | < 0.1 µM | 
Cn1nnn(-c2cc(Nc3ncc(F)c(N[C@@H]4C[C@@H]5CCCN5C(C)(C)C4)n3)c(F)cc2OCCO)c1=O [Compound 77, 1-(2-(2-hydroxyethoxy)-5-(4-((7R,8aS)-octahydro-5,5-dimethylindolizin-7-ylamino)-5-fluoropyrimidin-2-ylamino)-4-fluorophenyl)-4-methyl-1H-tetrazol-5(4H)-one] |  |  |  | EC50 ([1]; T-cell, human primary T cells stimulated with αCD3 and αCD28, IL-2 by ELISA, read-out: EC50 (blocked IL-2 production)): < 10 µM
COc1cc(Nc2ncc(F)c(NC3CC4CCCN4C(C)(C)C3)n2)cc(-n2nnnc2C)c1 (stereo not drawn) [Compound 12, (R/S, S/R, R/R, S/S)-5-fluoro-N4-(octahydro-5,5-dimethylindolizin-7-yl)N2-(3-methoxy-5-(5-methyl-1H-tetrazol-1-yl)phenyl)pyrimidine-2,4-diamine] |  |  | < 1 µM | 
C[C@H](O)COc1cc(F)c(Nc2ncc(F)c(N[C@@H]3C[C@@H]4CCCN4C(C)(C)C3)n2)cc1-n1nnn(C)c1=O [Compound 81, 1-(2-((S)-2-hydroxypropoxy)-5-(4-((7R,8aS)-octahydro-5,5-dimethylindolizin-7-ylamino)-5-fluoropyrimidin-2-ylamino)-4-fluorophenyl)-4-methyl-1H-tetrazol-5(4H)-one] |  | < 10 µM |  | EC50 ([1]; T-cell, IL-2 production, human primary T cells stimulated with αCD3 and αCD28, 24 hours, IL-2 by ELISA, read-out: EC50): < 0.1 µM

The next lines start with results.

EC50 [1, 3] | EC50 [1, 4] | EC50 [1, 5] | Structure (SMILES) | other results
< 0.1 µM | < 10 µM |  | Cn1nnn(-c2cc(Nc3ncc(F)c(N[C@@H]4C[C@@H]5CCCN5C(C)(C)C4)n3)c(F)cc2C2CC2)c1=O [Compound 17, 1-(5-(4-((7R,8aS)-octahydro-5,5-dimethylindolizin-7ylamino)-5-fluoropyrimidin-2-yl-amino)-2-cyclopropyl-4-fluorophenyl)-4-methyl-1H-tetrazol-5(4H)-one] | ED50 [2]: 30 mg/kg
< 1 µM | < 10 µM |  | CC1(C)C[C@H](Nc2nc(Nc3cc(-n4cnnn4)c(C4CC4)cc3F)ncc2F)C[C@@H]2CC(F)(F)CN21 [Compound 46, N^2-(4-cyclopropyl-2-fluoro-5-(1H-tetrazol-1-yl)phenyl)-5-fluoro-N^4-((7R,8aR)-2,2-difluoro-octahydro-5,5-dimethylindolizin-7-yl)pyrimidine-2,4-diamine] | 
 |  | < 0.5 µM | CC1C(Nc2nc(Nc3cc(N(C)C(=O)N(C)C)c(C4CC4)cc3F)ncc2F)CC(C)(C)N2CCCC12 (stereo not drawn) [Compound 74] | 
< 1 µM | < 10 µM |  | CC1(C)CC(Nc2nc(Nc3ccc(O[C@H]4CCOC4)c(C#N)c3)ncc2F)CC2CCCN21 (single isomer, unassigned) [Compound 61] | 
< 10 µM | < 10 µM |  | Cc1ccc(Nc2ncc(F)c(N[C@H]3C[C@@H]4CC(F)(F)CN4C(C)(C)C3)n2)cc1C#N [Compound 44, (4-((7S,8aR)-2,2-difluoro-octahydro-5,5-dimethylindolizin-7-ylamino)-5-fluoropyrimidin-2-ylamino)-2-methylbenzonitrile] | 
< 0.1 µM | < 10 µM |  | CC(C)Oc1cc(F)c(Nc2ncc(F)c(N[C@@H]3C[C@@H]4CCCN4C(C)(C)C3)n2)cc1-n1nnn(C)c1=O [Compound 23, 1-(5-(4-((7R,8aS)-5,5-dimethyl-octahydroindolizin-7-ylamino)-5-fluoropyrimidin-2-ylamino)-4-fluoro-2-isopropoxyphenyl)-4-methyl-1H-tetrazol-5(4H)-one] | 
 |  | < 0.5 µM | CC1(C)CC(Nc2nc(Nc3cc(-n4cnnn4)c(C4CC4)cc3F)ncc2F)CC2CCCN21 (racemic) [Compound 55, (±)-N2-(4-cyclopropyl-2-fluoro-5-(1H-tetrazol-1-yl)phenyl)-5-fluoro-n^4-(octahydro-5,5-dimethylindolizin-7-yl)pyrimidine-2,4-diamine] | 
